Measurements reported in US5985922A, “Amino acid derivatives and active oxygen-resisting agent” (Ajinomoto Co., Inc., priority 1997, dated 1999).

Key:
[1] = Test for a Solubility (oil solvents, 1% by weight); assay type: physicochemical
Protocol: The solubility in the solvent shown in Table 2 when the concentration was 1% by weight was evaluated.

lipid peroxidation = assay: Test for an Active Oxygen Resistance (inhibition of lipid peroxidation in mouse brain homogenate); assay type: biochemical; conditions: whole brain homogenate, C57 black mouse, 20-mM phosphate buffer; 37° C., 30 minutes
Protocol: The test was conducted according to the method described in Method in Enzymol., vol. 52, p. […] The outline of the test method was that a homogenized 20-mM phosphate buffer of the whole brain of a C57 black mouse was prepared, a test substance was added thereto, and an absorbance of the mixture was measured.
Percent peroxidation inhibition (%)--
A1 : Absorbance in the addition of the test compound
A2 : Absorbance before the addition of the test compound
A3 : Absorbance when the test compound is not added, nor is the heating at 37° C. for 30 minutes conducted.

Compound	Solubility in liquid paraffin [1]	Solubility in olive oil [1]	Percent inhibition of lipid peroxidation (lipid peroxidation) [%]
CCCCCCCCCCCCNC(=O)[C@H](C)NCc1ccccc1O [Synthesis Example 5, N-(2-hydroxybenzyl)-L-alanine laurylamide]	gelling	soluble	80
CCCCCCCCCCCCNC(=O)CNCc1ccccc1O [Synthesis Example 7, N-(2-hydroxybenzyl)glycine laurylamide]	gelling	soluble	
CCCCCCCCCCCCOC(=O)[C@H](C)NCc1ccccc1O [Synthesis Example 1, N-(2-hydroxybenzyl)-L-alanine lauryl ester]	soluble	soluble	39
CCCCCCCCCCCCNC(=O)[C@H](Cc1ccccc1)NCc1ccccc1O [Synthesis Example 8, N-(2-hydroxybenzyl)phenylalanine laurylamide]	gelling	soluble	
C[C@H](NCc1ccccc1O)C(=O)O [N-(2-hydroxybenzyl)-L-alanine, reference compound]	insoluble	insoluble	6
O=C1O[C@H]([C@@H](O)CO)C(O)=C1O [Vitamin C, reference compound]			-23
CCCCCCCCCCCCOC(=O)CNCc1ccccc1O [Synthesis Example 3, N-(2-hydroxybenzyl)glycine lauryl ester]	soluble	soluble	
CCCCCCCCCCCCCCCCCCOC(=O)[C@H](C)NCc1ccccc1O [Synthesis Example 2, N-(2-hydroxybenzyl)-L-alanine stearyl ester]	soluble	soluble	16
O=C(O)CC(O)(CC(=O)O)C(=O)O [Citric acid, reference compound]			-15
CCCCCCCCCCCCCCCCCCNC(=O)[C@H](C)NCc1ccccc1O [Synthesis Example 6, N-(2-hydroxybenzyl)-L-alanine stearylamide]	gelling	soluble	17
O=C(O)CNCc1ccccc1O [N-(2-hydroxybenzyl)-L-glycine, reference compound]	insoluble	insoluble	
O=C(O)[C@H](Cc1ccccc1)NCc1ccccc1O [N-(2-hydroxybenzyl)-L-phenylalanine, reference compound]	insoluble	insoluble	
CCCCCCCCCCCCOC(=O)[C@H](Cc1ccccc1)NCc1ccccc1O [Synthesis Example 4, N-(2-hydroxybenzyl)-L-phenylalanine lauryl ester]	soluble	soluble	
